Laboratory results: ChEMBL document CHEMBL5550185, “Targeting hTERT Promoter G-Quadruplex DNA Structures with Small-Molecule Ligand to Downregulate hTERT Expression for Triple-Negative Breast Cancer Therapy” (J Med Chem, 2024)
Calls of active or inactive are those of the source. The calls are words filed in the database; no cut-off is given here.

How the values were obtained:
MDA-MB-231 [1] = experiment: Activation of apoptosis in human MDA-MB-231 cells assessed as upregulation of BAX protein expression measured after 48 hrs by Western blot analysis; format: functional, cell-based; conditions: dose 0-1.5 µM
MDA-MB-231 [2] = experiment: Induction of mitochondrial dysfunction in human MDA-MB-231 cells assessed as downregulation of mitochondrial respiratory complex IV-COX II expression incubated for 48 hrs by Western blot analysis; format: functional, cell-based; conditions: dose 0-1.5 µM
[3] = Upregulation of MAP1LC3B gene expression in human MDA-MB-231 cells assessed as fold change at 1 uM measured after 48 hrs by RNA-seq analysis relative to control; format: functional
MDA-MB-231 [4] = experiment: Induction of mitochondrial dysfunction in human MDA-MB-231 cells assessed as increase in mitochondrial ROS production at 0 to 1.5 uM incubated for 48 hrs by Hoechst33342 staining based microscopic analysis; format: functional, cell-based; conditions: dose 0-1.5 µM
MDA-MB-231 [5] = experiment: Induction of ferroptosis in human MDA-MB-231 cells assessed as increase in ROS production measured after 48 hrs by Hoechst 33342 staining based confocal microscopic analysis; format: functional, cell-based; conditions: dose 0-1.5 µM
[6] = Upregulation of HLA-E gene expression in human MDA-MB-231 cells assessed as fold change at 1 uM measured after 48 hrs by RNA-seq analysis relative to control; format: functional
Quadruplex DNA [7] = experiment: Binding affinity to c-MYC Pu27 G4 DNA (unknown origin) assessed as change in gibbs free energy at 400 uM by ITC analysis; format: nucleic-acid assay
MDA-MB-231 [8] = experiment: Induction of mitochondrial dysfunction in human MDA-MB-231 cells assessed as downregulation of mitochondrial respiratory complex II-SDHB expression incubated for 48 hrs by Western blot analysis; format: functional, cell-based; conditions: dose 0-1.5 µM
[9] = Upregulation of SAT1 gene expression in human MDA-MB-231 cells assessed as fold change at 1 uM measured after 48 hrs by RNA-seq analysis relative to control; format: functional
[10] = Toxicity in female Balb/c nude mouse xenografted with human MDA-MB-231 cells assessed as change in hemoglobin concentration at 2 to 5 mg/kg, iv administered via tail vein every 2 days for 16 days; format: organism-based; conditions: in vivo, 384 h, dose 2-5 mg/kg, time 16 day
[11] = Upregulation of IRS1 gene expression in human MDA-MB-231 cells assessed as fold change at 1 uM measured after 48 hrs by RNA-seq analysis relative to control; format: functional
[12] = Toxicity in female Balb/c nude mouse xenografted with human MDA-MB-231 cells assessed as change in granulocyte count at 2 to 5 mg/kg, iv administered via tail vein every 2 days for 16 days; format: organism-based; conditions: in vivo, 384 h, dose 2-5 mg/kg, time 16 day
MDA-MB-231 [13] = experiment: Cytotoxicity against human MDA-MB-231 cells transfected with hTERT-pcDNA3.1(+)-C-eBFP overexpressing hTERT assessed as inhibition of cell growth measured after 48 hrs by MTT assay; format: functional, cell-based; conditions: MDA-MB-231, 48 h
Quadruplex DNA [14] = experiment: Binding affinity to hTERT G4 DNA assessed as change in enthalpy at 400 uM by ITC analysis; format: nucleic-acid assay; conditions: Homo sapiens
Homo sapiens = species: Homo sapiens; experiment: Selectivity ratio of binding affinity to human TERT G4 DNA to binding affinity to antisense i-hTERT DNA
[15] = Toxicity in female Balb/c nude mouse xenografted with human MDA-MB-231 cells assessed as change in mean corpuscular hemoglobin at 2 to 5 mg/kg, iv administered via tail vein every 2 days for 16 days; format: organism-based; conditions: in vivo, 384 h, dose 2-5 mg/kg, time 16 day
[16] = Upregulation of CCNB3 gene expression in human MDA-MB-231 cells assessed as fold change at 1 uM measured after 48 hrs by RNA-seq analysis relative to control; format: functional
MDA-MB-231 [17] = experiment: Antitumor activity against human MDA-MB-231 cells xenografted in female Balb/c mouse assessed as inhibition of tumor cell proliferation at 5 mg/kg, iv administered via tail vein every 2 days for 16 days by TUNEL assay; format: functional, organism-based; conditions: time 16.0 day
MDA-MB-231 [18] = experiment: Downregulation of Artemis transcription level in human MDA-MB-231 cells at 1 uM measured after 48 hrs by RNA-seq analysis; format: functional, cell-based
MDA-MB-231 [19] = experiment: Antitumor activity against human MDA-MB-231 cells xenografted in iv dosed female Balb/c mouse assessed as nucleolysis in tumor administered via tail vein every 2 days for 16 days by H and E staining based analysis; format: functional, organism-based; conditions: dose 2-5 mg/kg, time 16.0 day
MDA-MB-231 [20] = experiment: Downregulation of ND5 gene expression in human MDA-MB-231 cells at 1 uM measured after 48 hrs by RNA-seq analysis; format: functional, cell-based
[21] = Drug localization in nucleus of telomerase-positive human MDA-MB-231 cells at 5 uM incubated for 10 mins by Hoechst 33342 staining based confocal microscopic analysis; format: ADME, subcellular; conditions: mda-mb-231, 10 min
[22] = Toxicity in female Balb/c nude mouse xenografted with human MDA-MB-231 cells assessed as signs of poor health at 2 to 5 mg/kg, iv administered via tail vein every 2 days for 16 days; format: organism-based; conditions: in vivo, 384 h, dose 2-5 mg/kg, time 16 day
[23] = Upregulation of PLK4 gene expression in human MDA-MB-231 cells assessed as fold change at 1 uM measured after 48 hrs by RNA-seq analysis relative to control; format: functional
MDA-MB-231 [24] = experiment: Inhibition of cell migration in human MDA-MB-231 cells at 0 to 1.5 uM measured after 48 hrs by crystal violet staining based microscopic analysis; format: functional; conditions: dose 0-1.5 µM
Quadruplex DNA [25] = experiment: Binding affinity to Bcl-2 G4 DNA (unknown origin) assessed as thermal stability by measuring change in melting temperature at 400 uM […]; format: nucleic-acid assay
MDA-MB-231 [26] = experiment: Antitumor activity against human MDA-MB-231 cells xenografted in female Balb/c mouse assessed as reduction in tumor volume at 5 mg/kg, iv administered via tail vein every 2 days for 16 days relative to control; format: functional; set-up: scale not given: the % may be the effect or the level left; conditions: time 16 day
[27] = Upregulation of PCBP3 gene expression in human MDA-MB-231 cells assessed as fold change at 1 uM measured after 48 hrs by RNA-seq analysis relative to control; format: functional
[28] = Selectivity ratio of binding affinity to human TERT G4 DNA to binding affinity to VEGF G4 DNA (unknown origin)
[29] = Toxicity in female Balb/c nude mouse xenografted with human MDA-MB-231 cells assessed as change in WBC count at 2 to 5 mg/kg, iv administered via tail vein every 2 days for 16 days; format: organism-based; conditions: in vivo, 384 h, dose 2-5 mg/kg, time 16 day
Quadruplex DNA [30] = experiment: Binding affinity to RET G4 DNA (unknown origin) assessed as thermal stability by measuring change in melting temperature at 400 uM […]; format: nucleic-acid assay
[31] = Upregulation of CCNB1 gene expression in human MDA-MB-231 cells assessed as fold change at 1 uM measured after 48 hrs by RNA-seq analysis relative to control; format: functional
MDA-MB-231 [32] = experiment: Upregulation of glycolysis metabolic pathway in human MDA-MB-231 cells assessed as fold increase at 1.5 uM measured after 2 hrs by Seahorse XF24 analyzer relative to control; format: functional
MDA-MB-231 [33] = experiment: Induction of mitochondrial phagocytosis in human MDA-MB-231 cells assessed as increase in autophagic vesicle formation measured after 48 hrs by MitoTracker Deep Red FM staining based live-cell confocal microscopic analysis; format: functional; conditions: dose 0-1.5 µM
MDA-MB-231 [34] = experiment: Downregulation of DNAPKcs transcription level in human MDA-MB-231 cells at 1 uM measured after 48 hrs by RNA-seq analysis; format: functional, cell-based

C[n+]1c(/C=C/c2c[nH]c3ccccc23)cc(/C=C2\Sc3ccccc3N2CCCN2CCC(C(F)(F)F)CC2)c2ccccc21.[I-]
Activity (MDA-MB-231 [1]): Dose-Dependent Effect
Activity (MDA-MB-231 [2]): Dose-Dependent Effect
fold change (FC) [3]: >2
Activity (MDA-MB-231 [4]): Active
Activity (MDA-MB-231 [5]): Dose-Dependent Effect
fold change (FC) [6]: >2
deltaG (Quadruplex DNA [7]): -6.59 kcal/mol
Activity (MDA-MB-231 [8]): Dose-Dependent Effect
fold change (FC) [9]: >2
Activity [10]: Non-Toxic
fold change (FC) [11]: >2
Activity [12]: Non-Toxic
IC50 (MDA-MB-231 [13]): 3.3 µM
deltaH (Quadruplex DNA [14]): -2.72 kcal/mol
Selectivity ratio (Homo sapiens): 3
Activity [15]: Non-Toxic
fold change (FC) [16]: >2
Activity (MDA-MB-231 [17]): Active
Activity (MDA-MB-231 [18]): Active
Activity (MDA-MB-231 [19]): Dose-Dependent Effect
Activity (MDA-MB-231 [20]): Active
Drug uptake [21]: Active
Activity [22]: Non-Toxic
fold change (FC) [23]: >2
inhibition (MDA-MB-231 [24]): Active
ΔTm (Quadruplex DNA [25]): 6.4 °C
Activity (MDA-MB-231 [26]): 78.5%
fold change (FC) [27]: >2
Selectivity ratio [28]: 2
Activity [29]: Non-Toxic
ΔTm (Quadruplex DNA [30]): 0.96 °C
fold change (FC) [31]: >2
fold change (FC) (MDA-MB-231 [32]): >0.8
Activity (MDA-MB-231 [33]): Active
Activity (MDA-MB-231 [34]): Active
